{
  "source": "patent US20140242595A1",
  "about": "“HEPATOCYTE PRODUCTION VIA FORWARD PROGRAMMING BY COMBINED GENETIC AND CHEMICAL ENGINEERING” (Cellular Dynamics International, Inc., priority 2013, published 2014)",
  "key": {"MEK": {"system": "MEK", "details": "Bain et al., 2007; cited from earlier work"}, "[1]": {"system": "human rtTET-expressing ESCs transfected with GFH, H1AM and TBX3", "experiment": "Hepatic programming efficiency by albumin (ALB) flow analysis", "assay_type": "cell-based", "details": "for % ALB-expressing cells (hepatic programming efficiency): 0.5 μM, alone, added along with doxycycline day 1 to day 7 post-plating, FIG. 6", "text": "Genes that are either implicated in hepatic differentiation during normal mammalian development or enriched in adult hepatocytes were cloned into the PiggyBac vector (FIG. 3) under the control of the […] promoter (Table 1). To find transcription factors that are able to directly impose mature hepatic fate upon human ESCs, various combinations of transgene-expressing PiggyBac vectors along with the hPBase-expressing vector were introduced into the human ESCs having constitutive expression of rtTET through nucleofection (Minis Ingenio Electroporation solution: cat#MIR50114; program: Amaxa B-016). Nucleofected human ESCs were cultured on matrigel in mTeSR1 (Stem Cell Technologies). Following geneticin (100 μg/ml) selection for stable genomic transgene integration (cells were passaged at lease once prior to differentiation), human ESCs were individualized by accutase treatment and plated to matrigel-coated 12-well plates. […] Where appropriate, small molecules, such as MEK inhibitor PD0325901, TGFβ kinase/activin receptor like kinase (ALK5) inhibitor A 83-01, and an analogue of the natural signaling molecule cyclic AMP 8-Bromoadenosine 3',5'-cyclic monophosphate (8-Br-cAMP), were added during hepatic programming. To determine the effect of MEK inhibitor PD0325901 (P) and TGFβ kinase/activin receptor like kinase (ALK5) inhibitor A 83-01 (A) on hepatic programming efficiency, human rtTET-expressing ESCs transfected with […] and TBX3 were plated on matrigel-coated 12-well plates at about 0.2×10^6 cells/well in mTeSR supplemented with 10 μM HA100 on day 0. […] Cells were collected for albumin (ALB) flow analysis on day 13 post-plating. […] Transfected cells were plated on matrigel-coated 12-well plates at about 0.2×10^6 cells/well in mTeSR supplemented with 10 μM HA100 on day 0. […] Cells were collected for ALB flow analysis on day 12 post-plating. […] With transgene expression, hepatocyte-like cells with polygonal shapes, distinct nuclei, and tight cell-cell contacts were readily observed. To determine the effect of cyclic AMP analog 8-Br-cAMP on hepatic programming, human rtTET-expressing ESCs transfected with […] and TBX3 were plated on matrigel-coated 12-well plates at about 0.2×10^6 cells/well in mTeSR supplemented with 10 μM HA100 on day 0. […] Cells were collected for ALB flow analysis on day 13 post-plating."}},
  "data": [
    {"smiles": "O=C(NOCC1CC1)c1ccc(F)c(F)c1Nc1ccc(I)cc1Cl", "note": "[PD184352]", "values": [
      {"measurement": "specificity and potency compared to other known MEK inhibitors", "setting": "MEK", "value": "high degree of specificity and potency"}
    ]},
    {"smiles": "O=C(NOC[C@H](O)CO)c1ccc(F)c(F)c1Nc1ccc(I)cc1F", "note": "[PD0325901]", "values": [
      {"measurement": "% ALB-expressing cells (hepatic programming efficiency)", "setting": "[1]; ALB flow analysis day 13", "value": "significantly improves"}
    ]},
    {"smiles": "C[C@H]1c2cccc(O)c2C(=O)C2=C(O)[C@]3(O)C(=O)C(C(N)=O)=C(O)[C@@H](N(C)C)[C@@H]3[C@@H](O)[C@@H]21", "note": "[Doxycycline]", "values": [
      {"measurement": "optimal time window for transgene induction for hepatic programming", "setting": "[1]; doxycycline 1 μg/ml with P and A for 0, 2, 4, 6, 8 or 10 days, ALB flow analysis day 12, FIG. 7A", "value": 4, "unit": "days"}
    ]},
    {"smiles": "Cc1cccc(-c2nn(C(=S)Nc3ccccc3)cc2-c2ccnc3ccccc23)n1", "note": "[A 83-01]", "values": [
      {"measurement": "% ALB-expressing cells (hepatic programming efficiency)", "setting": "[1]; ALB flow analysis day 13", "value": "significantly improves"}
    ]},
    {"smiles": "Nc1ncnc2c1nc(Br)n2[C@@H]1O[C@@H]2COP(=O)(O)O[C@H]2[C@H]1O", "note": "[8-Br-cAMP, 8-Bromoadenosine 3′,5′-cyclic monophosphate]", "values": [
      {"measurement": "saturation concentration for improved hepatic programming", "setting": "[1]; added from day 7 after removal of doxycycline, P and A, ALB flow analysis day 13, FIG. 8", "value": "~200", "unit": "µM"},
      {"measurement": "hepatic programming (ALB flow analysis)", "setting": "[1]; different concentrations added from day 7 after removal of doxycycline, P and A, ALB flow analysis day 13, FIG. 8", "value": "significantly improved"}
    ]}
  ]
}
